Patent US20160193188A1, “METHODS AND COMPOSITIONS FOR INCREASING THE EFFECTIVENESS OF ANTIVIRAL AGENTS” (ANTIVIRUS THERAPEUTICS, priority 2013, published 2016)
Where two headings read alike, the source gives them in different places.

Key:
[1] = 12 mg per day nasal spray; cited from earlier work
[2] = 25° C.; cited from earlier work
[3] = system: human respiratory picornavirus; conditions: oral dosage form; cited from earlier work
rhinovirus type 39 = test: Study 843-203: experimentally induced human rhinovirus respiratory infection in healthy adults, antiviral and clinical efficacy; assay type: in vivo
Protocol: Subjects were confined to a clinical facility with on-site medical surveillance from Day −2 through Day 5; outpatient follow-up visits were conducted on Days 5-7. On Day −1, 24 hours before administration of the first dose of study drug, each subject received an intranasal inoculation of 100-300 tissue culture infective dose 50% (TCID50) rhinovirus type 39. Nasal wash specimens were collected pre-inoculation and once or twice daily at predetermined time points on Days 1-7 for virologic determinations. Nasal mucus weights were determined daily through Day 4. The presence and severity of clinical symptoms were assessed throughout the study period. […] One subject in the pleconaril BID nasal spray group had study drug interrupted temporarily due to “blood in nasal mucus” observed on Day 1; this event was considered mild and resolved without treatment, and the subject completed BID dosing on Days 2 and 3.
Primary Endpoint: Log-transformed virus titers from serial nasal wash samples in Study 843-203 are shown in FIG. 2 for virology evaluable subjects (i.e., those subjects with a pre-inoculation serum neutralizing antibody titer to rhinovirus type 39 ˜1:2 and reverse transcriptase polymerase chain reaction [RT-PCR] and culture negative nasal wash sample and at least one post baseline nasal wash sample that was RT-PCR or culture positive). At the time of maximum viral titers (Day 2 AM) in the combined vehicle groups, median viral titers in each pleconaril group were 0.78-1.26 log lower than vehicle groups, and viral titers in the combined pleconaril BID/TID groups were 1 log lower than the vehicle groups.

[4] = Study 843-203: safety and tolerability in healthy adults; assay type: in vivo, human; conditions: healthy volunteers
CYP 3A = conditions: oral delivery, 200-400 mg dose level, cited from earlier work

SMILES: Cc1cc(CCCOc2c(C)cc(-c3noc(C(F)(F)F)n3)cc2C)on1 [pleconaril, 3-{3,5-dimethyl-4-[3-(3-methylisoxazol-5-yl)propoxy]phenyl}-5-(trifluoromethyl)-1,2,4-oxadiazole]
- clinical/antiviral effect compared with 400 mg oral dose [1]: roughly similar clinical/antiviral effect
- systemic exposure [1]: without any significant systemic exposure
- solubility in water [2]: < 0.02 µg/mL
- activity against human respiratory picornavirus [3]: broad activity
- repeated measures analysis of viral titers, between-group comparison (rhinovirus type 39; Day 1 PM to Day 7): not significant
- median log-transformed viral titers vs vehicle groups (rhinovirus type 39; each pleconaril treatment group (intranasal and oral), initiation of study drug through Day 3 AM): lower than the vehicle groups at all measured time points
- nasal mucus weights vs combined vehicle controls (rhinovirus type 39; nasal and oral pleconaril groups): significantly lower nasal mucus weights
- benefit vs. vehicle (rhinovirus type 39; nasal and oral pleconaril groups, through day 3 post infection): showed benefit vs. vehicle
- effect on common cold symptom duration and viral titers (rhinovirus type 39; nasal spray BID, nasal spray TID or oral): effective in reducing common cold symptom duration and viral titers
- median viral titers lower than vehicle groups (rhinovirus type 39; nasal wash, Day 2 AM (time of maximum viral titers), each pleconaril group): 0.78-1.26 log
- viral titers lower than vehicle groups (rhinovirus type 39; nasal wash, Day 2 AM, combined pleconaril BID/TID groups): 1 log
- serious adverse events [4]: No serious adverse events
- CYP 3A / CYP 3A4 induction (CYP 3A): inducer of CYP 3A4
- CYP 3A / CYP 3A4 induction (CYP 3A; listed as Pleconaril): induction of CYP 3A
